Reference: US20220380286A1, “METHOD FOR PRODUCING 2,2'-BIS(CARBOXYMETHOXY)-1,1'-BINAPHTHYL” (HONSHU CHEMICAL INDUSTRY CO., LTD., priority 2019, published 2022)

Assay: solubility in water (concentration of saturated solution)
Type: physicochemical
Conditions: 30° C., crystals filtered in Example 2
Description: After two hours, the reaction solution was gradually cooled and filtered at 25° C. (corresponding to the separation step of the present invention) to obtain crystals. […] The crystals were washed with water (18 g) and then washed with methyl isobutyl ketone (18 g) to obtain 109.0 g of a sodium salt of 2,2′-bis(carboxymethoxy)-1,1′-binaphthyl. For the removal of a mother liquor during the filtration, centrifugal force (small centrifuge H-122, manufactured by KOKUSAN Co., Ltd.) was utilized.

concentration of saturated solution in water: 3.8 wt %
Compound: O=C([O-])COc1ccc2ccccc2c1-c1c(OCC(=O)[O-])ccc2ccccc12.[Na+].[Na+] [sodium salt of 2,2′-bis(carboxymethoxy)-1,1′-binaphthyl]
